Experimental data as given in patent publication US20040023886A1, “Method for treating neurological conditions and inducing immunosuppression with cephaibols” (Aventis Pharma Deutschland Gmbh, priority 2002, published 2004).
“Also recorded” adds a separate entry of the source. Where a SMILES comes first, the peptide text is derived from it. [ ]: non-standard residue; d: D form. Hyp = O=C(O)[CH]1C[CH](O)CN1; Phe(ol) = N[CH](CO)Cc1ccccc1; Iva = CC[C](C)(N)C(=O)O; Aib = CC(C)(N)C(=O)O

Legend:
laboratory mice [1] = assay: Influence on spontaneous motility (neuroleptic effect, mouse model); type: in vivo; settings: 10 mg/kg intraperitoneal, observed from 5 min up to 24 hours
Method: (§1) Neuroleptic effect of the cephaibols in the mouse model
The influence of cephaibols A, B, C, D and E on motoricity in laboratory mice was observed over various periods of time (from 5 min up to 24 hours).
Fright reactions (noises) were retained, thereby ruling out the possibility of the cephaibols having a narcotic effect in the experimental arrangement.

laboratory mice [2] = assay: Hypothermia (neuroleptic effect, mouse model); type: in vivo; settings: 10 mg/kg intraperitoneal
Text: as §1

Phoma destructiva = assay: Induction of pigment formation in Phoma destructiva, punched-hole plate agar diffusion test; type: cell-based; settings: 50 µL of test solution per hole, 20 to 25° C., 4 to 5 days
Text: The induction of pigment formation in the fungus Phoma destructiva is a test model for, inter alia, identifying a potential immunosuppressant effect in test substances. The implementation of the Phoma destructiva test has been described by K. Dornberger et al. in J. Antibiotics, §, 977-989,1995.
The organism Phoma destructiva is a fungus which is known to be pathogenic to plants and which grows, in feebly colored colonies, on agar plates which have been inoculated with vegetative mycelium. Cell differentiation processes, which are accompanied by the formation of a pigment and therefore enable cell differentiation to be detected, are initiated under the influence of special inducers. The pigment, which is a melanin-like substance, can be recognized by its color and quantified photometrically or by measuring the zone size.
The fungus Phoma destructiva was cultured on sloping agar tubes containing culture medium A or B at from 20 to 25° C. and then stored at from 4 to 6° C. and reinoculated in a 2-year rhythm.
The fungus Phoma destructiva was cultured at from 20 to 25° C. for 11 days on medium B in 100 mm diameter petri dishes and, after that, washed off with 10 ml of a sterile 0.9% solution of NaCl. The wash-off can be used for 5 days when stored at 8° C.
The agar diffusion test method was a modification of the standardized agar diffusion assay described in the European Pharmacopoeia [Deutscher Apothekerverlag Stuttgart, pages 113-118, 1997]: 40 mL of test agar medium were liquefied and brought to a constant temperature of 50° C.; from 8 to 10 mL of the inoculation culture were added under sterile conditions and the mixture was then poured into 150 mm diameter test plates. After the plates had cooled, 12 punched holes of 9 mm in diameter were arranged on the plate using a punching implement [J, V. Benett et al. Appl. Micr.1.1;, 170-177, 1966]. The test holes were loaded with 50JiL of the solution to be tested, with one test hole containing cyclosporin as the control substance (1 μg of cyclosporin A in 50 μL of methanol). […]

platelet aggregation = settings: literature; cited from earlier work

Compound	motoricity (climbing) in comparison with the control mice (laboratory mice [1])	body temperature as compared with the control animals (laboratory mice [2])	pigment formation in Phoma destructiva (Phoma destructiva)	platelet aggregation (platelet aggregation)
CCC(C)(NC(=O)C(CC(C)C)NC(=O)CNC(=O)C(C)(C)NC(=O)C(C)(C)NC(=O)C(C)(C)NC(=O)C(C)(C)NC(=O)C(Cc1ccccc1)NC(C)=O)C(=O)NC(C)(C)C(=O)N1CC(O)CC1C(=O)NC(CCC(N)=O)C(=O)NC(C)(CC)C(=O)N1CC(O)CC1C(=O)NC(C)(C)C(=O)N1CCCC1C(=O)NC(CO)Cc1ccccc1 (stereo not drawn) [cephaibol A, AcPhe-Aib-Aib-Aib-Aib-Gly-Leu-Iva-Aib-Hyp-Gln-Iva-Hyp-Aib-Pro-Phe-ol] (Ac-F[Aib][Aib][Aib][Aib]GL[Iva][Aib][Hyp]Q[Iva][Hyp][Aib]P[Phe(ol)]; configuration not given here)	impaired	marked reduction	particularly pronounced	–
CCC(C)(NC(=O)C(CC(C)C)NC(=O)CNC(=O)C(C)(CC)NC(=O)C(C)(C)NC(=O)C(C)(C)NC(=O)C(C)(C)NC(=O)C(Cc1ccccc1)NC(C)=O)C(=O)NC(C)(C)C(=O)N1CC(O)CC1C(=O)NC(CCC(N)=O)C(=O)NC(C)(CC)C(=O)N1CC(O)CC1C(=O)NC(C)(C)C(=O)N1CCCC1C(=O)NC(CO)Cc1ccccc1 (stereo not drawn) [cephaibol B, AcPhe-Aib-Aib-Aib-Iva-Gly-Leu-Iva-Aib-Hyp-Gln-Iva-Hyp-Aib-Pro-Phe-ol] (Ac-F[Aib][Aib][Aib][Iva]GL[Iva][Aib][Hyp]Q[Iva][Hyp][Aib]P[Phe(ol)]; configuration not given here)	impaired; also recorded: particularly pronounced	marked reduction; also recorded: particularly pronounced	particularly pronounced	–
CCC(C)(NC(=O)C(CC(C)C)NC(=O)CNC(=O)C(C)(C)NC(=O)C(C)(C)NC(=O)C(C)(C)NC(=O)C(C)(C)NC(=O)C(Cc1ccccc1)NC(C)=O)C(=O)NC(C)(C)C(=O)N1CC(O)CC1C(=O)NC(CCC(N)=O)C(=O)NC(C)(C)C(=O)N1CC(O)CC1C(=O)NC(C)(C)C(=O)N1CCCC1C(=O)NC(CO)Cc1ccccc1 (stereo not drawn) [cephaibol C, AcPhe-Aib-Aib-Aib-Aib-Gly-Leu-Iva-Aib-Hyp-Gln-Aib-Hyp-Aib-Pro-Phe-ol] (Ac-F[Aib][Aib][Aib][Aib]GL[Iva][Aib][Hyp]Q[Aib][Hyp][Aib]P[Phe(ol)]; configuration not given here)	impaired; also recorded: particularly pronounced	marked reduction; also recorded: particularly pronounced	particularly pronounced	–
CCC(C)(NC(=O)C(CC(C)C)NC(=O)CNC(=O)C(C)(C)NC(=O)C(C)(C)NC(=O)C(C)(C)NC(=O)C(C)(C)NC(=O)C(Cc1ccccc1)NC(C)=O)C(=O)NC(C)(C)C(=O)N1CC(O)CC1C(=O)NC(CCC(N)=O)C(=O)NC(C)(C)C(=O)N1CC(O)CC1C(=O)NC(C)(C)C(=O)N1CCCC1C(=O)NC(CO)Cc1ccccc1 (stereo not drawn) [cephaibol D, AcPhe-Aib-Aib-Aib-Aib-Gly-Leu-Aib-Aib-Hyp-Gln-Aib-Hyp-Aib-Pro-Xaa5] (Ac-F[Aib][Aib][Aib][Aib]GL[Iva][Aib][Hyp]Q[Aib][Hyp][Aib]P[Phe(ol)]; configuration not given here)	impaired	–	–	–
Clonostachin	–	–	–	inhibits
